# Source: ChEMBL document CHEMBL3112560 (Bioorg Med Chem Lett, 2014)
# Experiments:
# [1] = species: Rattus norvegicus; assay: Inhibition of VGLUT in rat brain assessed as [3H]-L-Glu uptake into synaptic vesicles at 250 uM relative to control; type: tissue-based
# [2] = Inhibition of VGLUT-mediated [3H]-L-Glu uptake into synaptic vesicles in rat brain; type: tissue-based
# [3] = Inhibition of VGLUT (unknown origin); parameters: species or system Homo sapiens
# [4] = Competitive inhibition of VGLUT-mediated [3H]-L-Glu uptake into synaptic vesicles in rat brain by Lineweaver-Burk plot analysis; type: tissue-based
smiles,measurement,setting,value
CC(=O)C1CCC2C3CC=C4CC(OS(=O)(=O)O)CCC4(C)C3CCC12C (centres undefined),inhibition,[1],31%
O=C(O)c1cc(C(=O)O)c2c(ccc3cc4ccccc4cc32)n1,IC50,[2],71 µM
same,inhibition,[1],17%
Cc1cc(-c2ccc(/N=N/c3c(S(=O)(=O)O)cc4cc(S(=O)(=O)O)cc(N)c4c3O)c(C)c2)ccc1/N=N/c1c(S(=O)(=O)O)cc2cc(S(=O)(=O)O)cc(N)c2c1O [TRYPAN BLUE],Ki,[3],0.05 µM
CC(=O)O[C@H]1CC[C@@]2(C)C(=CC[C@H]3[C@@H]4CC[C@H](C(C)=O)[C@@]4(C)CC[C@@H]32)C1,inhibition,[1],86%
CC(=O)[C@H]1CC[C@H]2[C@@H]3CC=C4C[C@@H](O)CC[C@]4(C)[C@H]3CC[C@]12C,inhibition,[1],100%
CC(=O)[C@H]1CC[C@H]2[C@@H]3CC[C@@H]4C[C@@H](OS(=O)(=O)O)CC[C@]4(C)[C@H]3CC[C@]12C,Ki,[4],22 µM
same,IC50,[2],42 µM
same,inhibition,[1],15%
N[C@@]1(C(=O)O)CC[C@@H](C(=O)O)C1,Ki,[3],700 µM
O=C(O)c1cc(C(=O)O)c2ccc3cc4ccccc4cc3c2n1,IC50,[2],70 µM
same,inhibition,[1],26%
C[C@]12CC[C@@H]3c4ccc(O)cc4CC[C@H]3[C@@H]1CCC2=O,inhibition,[1],98%
C[C@]12CC[C@@H]3c4ccc(OC(=O)CCC(=O)O)cc4CC[C@H]3[C@@H]1CCC2=O,inhibition,[1],109%
